Assay [1] deals with S100P in human pancreatic juice specimens. Briefly: Room temperature storage stability of S100P in human clinical pancreatic juice specimens versus freeze storage, S100P ELISA (Example 3). The following applies: seven human clinical specimens; 25° C. for 16 hours; AEBSF 4 mM, PMSF 1 mM. As for the experimental part: With a view to improving the storage performance of pancreatic proteins further, it was studied whether the storage stability of S100P was influenced by the combined use of the sulfonyl fluoride-containing sulfone-based compound and TLCK, that is, another […] compound. Seven human clinical specimens were used.
Described specifically, sample solutions were prepared as follows: (1) Sample Solution 1: AEBSF, obtained by adding AEBSF (final concentration: 4 mM) to the human clinical specimens. (2) Sample Solution 2: AEBSF+PMSF, obtained by adding AEBSF (final concentration: 4 mM) and PMSF (final concentration: 1 mM) to the human clinical specimens. (3) Sample Solution 3: AEBSF+PMSF+Aprotinin, obtained by adding AEBSF (final concentration: 4 mM), PMSF (final concentration: 1 mM) and Aprotinin (final concentration: 3 μM) to the human clinical specimens. […]
The concentration of S100P is plotted along the ordinate, while Sample Solutions 1 to 5 (“AEBSF”, “AEBSF+PMSF”, “AEBSF+PMSF+Aprotinin”, “AEBSF+PMSF+TPCK”, and “AEBSF+PMSF+TLCK” in the graph) of the human pancreatic juice specimens 1 to 7 are plotted along the abscissa. […] As a result, in the sample solutions after frozen storage, S100P was detected, though varying in amount, from all the human pancreatic juice specimens irrespective of the kind of the protease inhibitor added. […]
On the technique in general: ELISA stands for enzyme-linked immunosorbent assay.

The subject of assay [2] is Pancreatin (activated pancreatic enzyme). In words: Protease activity of pancreatin solution (pseudo artificial pancreatic juice), EnzCheck Protease Assay Kit with fluorescently-labeled casein. The following applies: final concentration within range recommended by manufacturers; 37° C. for 2 hours; Ex/Em=485/535 nm. It counts as biochemical, pig. How it is done:
A protease inhibitor screen was performed to find an inhibitor targeting a serine protease and having a high inhibitory effect against pancreatic juice. The protease inhibitors used were aprotinin (product of Roche), leupeptin (product of Roche), PMSF (product of Roche), AEBSF (product of Roche), p-APMSF (product of SIGMA), camostat mesilate (Foipan: product of Wako Pure Chemical Industries), gabexate mesilate (FOY: product of Wako Pure Chemical Industries), TLCK (product of SIGMA), and TPCK (product of SIGMA). It is to be noted that TPCK is an amino acid chloromethyl ketone having inhibitory activity against chymotrypsin but having no inhibitory activity against trypsin.
“Pancreatin”, a digestive enzyme prepared from the pig pancreas in which a pancreatic enzyme was present in activated form was used as pseudo artificial pancreatic juice. After addition of protease inhibitors in an amount so that the final concentration thereof would fall within a concentration range recommended by the manufacturers of the inhibitors, the protease activity was measured. The protease activity was measured using EnzCheck Protease Assay Kits (product of Molecular Probes). Described specifically, fluorescently-labeled casein attached to a kit was added to a pancreatin solution containing each protease inhibitor. After incubation at 37° C. for 2 hours, the amount of fluorescence was measured at a fluorescence wavelength of Ex/Em=485/535 nm. As a control, the protease activity of a sample solution (containing no inhibitor) obtained by directly adding fluorescently-labeled casein to pancreatin was measured.
The amount of fluorescence plotted along the ordinate represents the amount of degraded casein and it was approximated as the value of protease activity. The protease inhibitors contained respectively in the pancreatin solutions and final concentrations thereof are plotted along the abscissa. […] These inhibitors are each a sulfonyl fluoride-containing sulfone-based compound.

Assay [3] concerns S100P in human pancreatic juice specimens 1 and 2. In words: Room temperature storage stability of added S100P standard preparation in human pancreatic juice specimens 1 and 2, S100P ELISA (Example 4). Particulars: 25 ng/mL S100P standard added (exogenous), 25° C. for 16 hours, AEBSF 4 mM, PMSF 1 mM, TLCK 1 mM. As for the experimental part: An effect of a protease inhibitor for storage stability of S100P in a pseudo artificial pancreatic juice and that for storage stability of S100P in a human clinical specimen were compared. As a S100P-containing pseudo artificial pancreatic juice, a solution obtained by adding S100P (standard preparation) to a pancreatin solution to give a concentration of 25 ng/mL was used.
More specifically, sample solutions were prepared as follows: (1) Sample Solution 1: containing no inhibitor, obtained by mixing 25 ng/mL of an S100P (standard preparation) solution with the two human clinical specimens (human pancreatic juice specimens 1 and 2) used in Example 3 and the pseudo artificial pancreatic juice. […]
The concentration of S100P is plotted along the ordinate, while Sample Solutions 1 to 4 using the human pancreatic juice specimens 1 and 2 and the S100P-containing pseudo artificial pancreatic juice (“Without inhibitor”, “AEBSF”, “AEBSF+PMSF”, and “AEBSF+PMSF+TLCK” in the graph) are plotted along the abscissa. […] As a result, in the sample solutions after freeze storage, S100P was detected from both the human pancreatic juice specimen and the pancreatin solution. On the other hand, with regard to the sample solutions after room temperature storage, no S100P was detected from the pancreatin solutions irrespective of the presence or absence or the kind of the protease inhibitor.

The test system of assay [4] is S100P in human clinical pancreatic juice specimens. Briefly: Room temperature storage stability of added S100P standard preparation in human clinical pancreatic juice specimens, S100P ELISA (Example 2). Particulars: 25 ng/mL S100P standard added; four human clinical pancreatic juice specimens; 25° C. for 16 hours; AEBSF 4 mM, PMSF 1 mM. The text has this: While attention was paid to the sulfone-based compounds found to have a high inhibitory effect against digestive enzymes in pancreatic juice in Example 1, the effect of the various sulfone-based compounds on the room temperature stability of S100P (calcium-binding protein) known as a marker protein of pancreatic cancer was studied. This means that by using four human clinical pancreatic juice specimens, whether the concentration of S100P changed or not after addition of a S100P protein standard preparation was studied before and after room temperature storage.
Described specifically, sample solutions were prepared as follows: (1) Sample Solution 1: containing no inhibitor, obtained by mixing 25 ng/mL of an S100P (standard preparation) solution with the human clinical specimens, respectively. (2) Sample Solution 2: AEBSF, obtained by adding AEBSF (final concentration: 4 mM) to Sample Solution 1. […] Then, S100P was detected using CircuLex S100P ELISA Kit (product of Cyclex, Catalogue Number: CY-8060) from solutions obtained by carrying out 10-fold dilution of the sample solutions with a buffer attached to CircuLex S100P ELISA Kit, respectively. As a control, S100P was detected similarly from Sample Solution 1 immediately after preservation (that is, before room temperature storage). […]

SMILES strings stand for the structures.

Consider `NCCc1ccc(S(=O)(=O)F)cc1` [AEBSF, 4-(2-aminoethyl)-benzenesulfonyl fluoride], for which the “S100P detection amount after room temperature storage compared with freeze storage” value in assay [1] is “the detection amount was very small compared with that after freeze storage”. Further, the “inhibitory effect on protease activity (amount of fluorescence = degraded casein) of pancreatin solution” value in assay [2] was “markedly high inhibitory effect”. Further, the “detection amount of S100P after room temperature storage” value in assay [3] is reported as “detection amount of S100P is greater”. The “S100P concentration after room temperature storage” value in assay [4] is on record as “S100P was detected from any of the pancreatic juice specimens”.
Regarding `O=S(=O)(F)Cc1ccccc1` [PMSF, phenylmethylsulfonyl fluoride], in assay [2], the “inhibitory effect on protease activity (amount of fluorescence = degraded casein) of pancreatin solution” value was “markedly high inhibitory effect”.
On the same count and under the same terms, the same measure for `Cc1ccc(S(=O)(=O)N[C@@H](CCCCN)C(=O)CCl)cc1` [TLCK, N-a-tosyl-L-lysine chloromethyl ketone]: “not effective inhibitors by themselves”; for `Cl.N=C(N)c1ccc(CS(=O)(=O)F)cc1` [p-APMSF, p-amidinophenylmethanesulfonyl fluoride hydrochloride]: “markedly high inhibitory effect”.

The values are drawn from patent US9376675B2, “Method for preserving components of pancreatic juice in a sample, and kit for preserving components of pancreatic juice in a sample” (priority 2012, dated 2016).
